Values quoted from earlier work in article PMC3759941 (International Journal of Molecular Sciences, 2013).
Where two headings read alike, the source gives them in different places.

System: EeAChE

Row | SMILES | IC50 (Table 2, bis-pyridinium reactivators) [mM] | IC50 (Table 3) [mM] | IC50 (Table 1, mono-pyridinium reactivators) [mM]
1 | ON=Cc1cc[n+](CCC[n+]2ccc(/C=N/O)cc2)cc1 [Compound 6, trimedoxime] | 51.9 | 51.9 | –
2 | C[n+]1ccccc1/C=N/O [Compound 1, 2-pyridine aldoxime methiodide] | – | – | 54.9
3 | ON=Cc1cc[n+](C/C=C/C[n+]2ccc(C=NO)cc2)cc1 [Compound 23] | – | 36.7 | –
